Tests used:
DP-IV = assay: inhibition of / affinity for DP-IV; format: biochemical
Description: As an illustrative embodiment, the ability of a test agent to inhibit DPIV can be assessed using a calorimetric or fluorometric substrate, such as Ala-Pro-paranitroanilide. […] Moreover, DPIV can be purified, and is accordingly readily amenable for use in such high throughput formats as multi-well plates.
An illustrative reaction mixture includes […] (pH7.8), 10 μM Ala-Pro-paranitroanilide, 6 milliunits of DPIV, and 2% (v/v) dimethylformamide in a total volume of 1.0 mL. The reaction is initiated by addition of enzyme, and formation of reaction product (paranitroanilide) in the presence and absence of a test compound can be detected photometrically, e.g., at 410 nm.

blood glucose levels = assay: oral glucose tolerance test (oral glucose challenge) in mice; format: in vivo; settings: for glucose levels in blood / glucose control after a single injection: acute, single injection before oral glucose tolerance test; for blood sugar levels / glycemic excursion to oral glucose challenge, chronic treatment: injected twice daily for four days, then oral glucose challenge; for response to a sub-therapeutic dose of GLP-1: single injection, 8 μg GLP-1 five minutes prior to glucose
Description: The first two experiments are “acute” experiments wherein the mice were injected with a single dose of Pro-boro-pro. In the first set of experiments mice were injected with 150 μg of Pro-boro-pro (PBP-1) and then subjected to an oral glucose tolerance test within an hour. […] In a second set of experiments mice were injected with Pro-boro-pro (PBP-2) one hour prior to an oral glucose challenge test. FIG. 3 presents the results of these experiments. Each set of experiments was also performed using saline as a control.
The third set of experiments were “chronic” experiments, wherein the mice were injected twice daily with Pro-boro-pro for four days, followed by an oral glucose challenge.

Compound: CC(NC(=O)OC(C)(C)C)C(=O)N1CCCC1B(O)O (stereo not drawn) [Boc-blocked Ala-boroPro, Boc-Ala-boroPro]
- affinity for DP-IV (DP-IV): no affinity

Compound: L-Ala-L-boroPro-pinacol [early fraction]
- extent of DP-IV inhibition compared with later fractions (DP-IV; at equal concentrations, silica gel fractions of Ala-boroPro-pinacol): inhibits DP-IV to a greater extent than later fractions

Compound: O=C(C1CCCN1)N1CCCC1B(O)O (centres unmarked) [Pro-boro-pro]
- fasting blood sugars, chronic treatment (blood glucose levels; chronic (>5 days) treatment alone): lowers
- glucose levels in blood / glucose control after a single injection (blood glucose levels; mice): alone sufficient to improve glucose control
- glucose levels in blood / glucose control after a single injection (blood glucose levels; mice, listed as PBP-1): improves glucose levels in blood
- glucose levels in blood / glucose control after a single injection (blood glucose levels; mice, listed as PBP-2): improves glucose levels in blood
- blood sugar levels / glycemic excursion to oral glucose challenge, chronic treatment (blood glucose levels; mice): lowers
- blood sugar levels / glycemic excursion to oral glucose challenge, chronic treatment (blood glucose levels; mice, listed as PBP-3): lowering of the blood sugar levels
- blood sugar, oral glucose challenge (blood glucose levels; mice, overall statement on the experiments): clearly lowers blood sugar
- response to a sub-therapeutic dose of GLP-1 (blood glucose levels; mice): potentiate the response
- response to a sub-therapeutic dose of GLP-1 (blood glucose levels; mice, listed as PBP-1): potentiates the response

Source: patent US6803357B1, “Method of regulating glucose metabolism, and reagents related thereto” (New England Medical Center Hospitals, Inc., priority 1999, dated 2004)
